The subject of the first assay is Plasmodium falciparum. Description: Antimalarial activity against Plasmodium falciparum assessed as parasite growth inhibition after 48 hrs by [3H]hypoxanthin incorporation assay. It counts as functional, organism-based.
For `C=C[C@H]1CN2CC[C@H]1C[C@H]2[C@H](O)c1ccnc2ccc(OC)cc12` [QUININE], the IC50 – broadly, the concentration that inhibits the measured activity by half – was 53.7 nM.

As to `OC(c1cc(C(F)(F)F)nc2c(C(F)(F)F)cccc12)C1CCCCN1` (centres undefined) [MEFLOQUINE], the IC50 came out at 6.7 nM.

On to `CCNCc1cc(Nc2ccnc3cc(Cl)ccc23)ccc1O` [DESETHYL AMODIAQUINE], for which the IC50 stood at 8.3 nM.

For the molecule `C[C@H]1[C@@H](O)O[C@@H]2O[C@@]3(C)CC[C@H]4[C@H](C)CC[C@@H]1[C@@]24OO3` [ARTENIMOL], the IC50 amounted to 0.95 nM.

For the next assay, the system named is Plasmodium falciparum. The assay can be described thus: Antimalarial activity against Plasmodium falciparum assessed as resistant isolates. In kind it is functional.
As to `CCN(CC)CCCC(C)Nc1ccnc2cc(Cl)ccc12` (centres undefined) [CHLOROQUINE], the Activity was 3.2%.

Take `C=C[C@H]1CN2CC[C@H]1C[C@H]2[C@H](O)c1ccnc2ccc(OC)cc12` [QUININE]: the Activity turned out to be 0%.

`OC(c1cc(C(F)(F)F)nc2c(C(F)(F)F)cccc12)C1CCCCN1` (centres undefined) [MEFLOQUINE]: the Activity is given as 0.4%.

Regarding `CCNCc1cc(Nc2ccnc3cc(Cl)ccc23)ccc1O` [DESETHYL AMODIAQUINE], the Activity is reported as 0.5%.

In the case of `C[C@H]1[C@@H](O)O[C@@H]2O[C@@]3(C)CC[C@H]4[C@H](C)CC[C@@H]1[C@@]24OO3` [ARTENIMOL], the Activity was found to be 0%.

(Values after ChEMBL document CHEMBL1649252, “Plasmodium falciparum drug resistance in Madagascar: facing the spread of unusual pfdhfr and pfmdr-1 haplotypes and the decrease of dihydroartemisinin susceptibility” (Antimicrob Agents Chemother, 2009).)
